We go through three compounds from patent publication US10551379B2, “Methods and compositions for improving detection and/or capture of a target entity” (PRESIDENT AND FELLOWS OF HARVARD COLLEGE, priority 2013, dated 2020).

Test [1] deals with T1, FcMBL (Homo sapiens, UniProt P11226). In words: FcMBL ELISA capture in blood: background and haemocyte binding (FIGS. 3A-3B). The note with it: for background of the FcMBL ELISA: ligand added to FcMBL prior to the capture of mannan in the presence of blood. The protocol: FIGS. 3A-3B are data graphs showing effects of adding a blocking agent (e.g., ˜10 mM glucose) on binding of a target entity (e.g., LPS) or an interfering agent (e.g., haemocytes) to a target-binding agent (e.g., FcMBL beads) in donor blood.
T1 sequence (P11226 with tags, fused parts or gaps limits assumed): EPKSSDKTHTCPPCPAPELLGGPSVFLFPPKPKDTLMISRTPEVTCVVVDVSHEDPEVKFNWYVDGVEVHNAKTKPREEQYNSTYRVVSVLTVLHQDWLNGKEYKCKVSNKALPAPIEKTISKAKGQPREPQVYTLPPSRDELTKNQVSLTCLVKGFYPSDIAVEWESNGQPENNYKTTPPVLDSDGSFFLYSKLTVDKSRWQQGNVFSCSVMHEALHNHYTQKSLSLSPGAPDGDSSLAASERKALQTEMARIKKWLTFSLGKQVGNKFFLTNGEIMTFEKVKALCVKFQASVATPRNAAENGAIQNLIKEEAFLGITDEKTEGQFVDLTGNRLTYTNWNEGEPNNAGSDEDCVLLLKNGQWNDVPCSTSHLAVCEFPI
(§1) Without wishing to be bound by theory, this reduced background can be related to the prevention of FcMBL low affinity binding to erythrocytes (or other endogenous components in blood) by the medium affinity sugar that in turn can be displaced by the higher affinity targets such as mannan, lipopolysaccharides (LPS), and/or a microbe or fragment thereof.
Background: ELISA stands for enzyme-linked immunosorbent assay.

Test [2] concerns the target T1, FcMBL. Briefly: Binding affinity (Kd) of medium affinity ligands for FcMBL. The note with it: read-out: Kd (medium affinity ligand of FcMBL).
Source text: as §1

As a reminder, the Kd is the equilibrium constant for the complex coming apart.

Consider `OC[C@H]1O[C@H](O[C@H]2[C@H](O)[C@@H](O)C(O)O[C@@H]2CO)[C@H](O)[C@@H](O)[C@@H]1O` (mixture of isomers) [maltose], for which the “background of the FcMBL ELISA” value on FcMBL [1] is “decreases the background”. Also, the Kd at FcMBL [2] came to 15 mM. Take `CC(=O)N[C@H]1C(O)O[C@H](CO)[C@@H](O)[C@@H]1O[C@H](C)C(=O)O` (some centres unmarked) [N-acetyl Muramic acid]: at FcMBL [1], the “background of the FcMBL ELISA” value was “decreases the background”. In addition, the dissociation constant Kd at FcMBL [2] was 17 mM.

For the compound mannan, the “background by binding of erythrocytes or other endogenous blood components to FcMBL” value at FcMBL [1] (addition of a small amount of mannan) is on record as “decrease the background”.
